Test results taken from ChEMBL document CHEMBL4354844, “Discovery of Balovaptan, a Vasopressin 1a Receptor Antagonist for the Treatment of Autism Spectrum Disorder” (J Med Chem, 2020).
Calls of active or inactive are those of the source. The calls are words filed in the database; no cut-off is given here.

Assays:
[1] = target: MDR1 (ABCB1, P-glycoprotein) (Homo sapiens, UniProt P08183); assay: Substrate activity at human MDR1 expressed in LLC-PK1 cells assessed as efflux ratio of permeability at 1 uM measured after 3.5 hrs by lucifer yellow based scintillation counting or HPLC method; assay type: ADME, cell-based
[2] = Half life in iv dosed human; assay type: ADME, organism-based; settings: in vivo
[3] = target: Vasopressin V1a receptor (Homo sapiens) (UniProt P37288); assay: Antagonist activity at human Gq5s-coupled V1a receptor expressed in CHO cells assessed as inhibition of vasopressin-induced calcium flux preincubated for 20 mins followed by vasopressin addition and measured for 5 mins by fluo-4-AM dye based FLIPR assay; assay type: functional, cell-based
[4] = Selectivity ratio of Kb for antagonist activity at human V2 receptor to Kb for antagonist activity at human Gq5s-coupled V1a receptor expressed in CHO cells
[5] = Selectivity ratio of Kb for antagonist activity at human […] receptor to Kb for antagonist activity at human Gq5s-coupled V1a receptor expressed in CHO cells
[6] = Intrinsic clearance in human liver microsomes assessed per mg protein; assay type: ADME, Microsome; settings: read-out: CLH
[7] = Intrinsic clearance in rat liver microsomes assessed per mg protein; assay type: ADME, Microsome; settings: read-out: CLH
[8] = Water/octanol distribution coefficient, log D of the compound at pH 7.4 measured after 18 hrs by LC-MS analysis; assay type: physicochemical
[9] = Clearance in iv dosed rat relative to hepatic blood flow; assay type: ADME, organism-based; settings: in vivo
[10] = Volume of distribution at steady state in iv dosed rat; assay type: ADME, organism-based; settings: in vivo, read-out: Vdss
[11] = Half life in iv dosed rat; assay type: ADME, organism-based; settings: in vivo
Rattus norvegicus [12] = assay: In vivo receptor occupancy at V1a receptor in stress hyperresponsive Fischer F344 rat at 30 mg/kg, iv administered as bolus dose via catheter; assay type: functional
Rattus norvegicus [13] = assay: Neuroprotective activity in stress hyperresponsive Fischer F344 rat assessed as increase in perfusion in substantia nigra at 30 mg/kg, iv administered as bolus dose via catheter by ASL-based MRI analysis; assay type: functional, organism-based
Rattus norvegicus [14] = assay: Neuroprotective activity in stress hyperresponsive Fischer F344 rat assessed as increase in perfusion in ventral tegmental area at 30 mg/kg, iv administered as bolus dose via catheter by ASL-based MRI analysis; assay type: functional, organism-based
Rattus norvegicus [15] = assay: Neuroprotective activity in stress hyperresponsive Fischer F344 rat assessed as increase in perfusion in hypothalamus at 30 mg/kg, iv administered as bolus dose via catheter by ASL-based MRI analysis; assay type: functional, organism-based
Rattus norvegicus [16] = assay: Neuroprotective activity in stress hyperresponsive Fischer F344 rat assessed as increase in perfusion in raphe nuclei at 30 mg/kg, iv administered as bolus dose via catheter by ASL-based MRI analysis; assay type: functional, organism-based
Rattus norvegicus [17] = assay: Neuroprotective activity in iv dosed stress hyperresponsive Fischer F344 rat assessed as improvement in neural activity pattern administered as bolus dose via catheter by ASL-based MRI analysis; assay type: functional, organism-based

Chain of Vasopressin V1a receptor (Homo sapiens) (P37288 whole entry, looked up): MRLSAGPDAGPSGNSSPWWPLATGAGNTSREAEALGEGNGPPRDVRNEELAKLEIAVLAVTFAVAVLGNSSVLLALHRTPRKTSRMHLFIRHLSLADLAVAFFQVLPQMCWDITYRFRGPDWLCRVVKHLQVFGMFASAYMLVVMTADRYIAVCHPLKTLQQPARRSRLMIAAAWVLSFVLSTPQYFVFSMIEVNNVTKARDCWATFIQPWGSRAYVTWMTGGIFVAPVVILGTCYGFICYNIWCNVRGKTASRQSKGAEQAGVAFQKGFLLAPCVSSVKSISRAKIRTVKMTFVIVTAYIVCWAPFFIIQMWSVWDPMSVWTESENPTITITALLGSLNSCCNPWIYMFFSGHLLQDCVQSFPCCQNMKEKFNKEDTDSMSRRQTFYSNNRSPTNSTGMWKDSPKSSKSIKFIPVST
Chain of MDR1 (ABCB1, P-glycoprotein) (P08183 whole entry): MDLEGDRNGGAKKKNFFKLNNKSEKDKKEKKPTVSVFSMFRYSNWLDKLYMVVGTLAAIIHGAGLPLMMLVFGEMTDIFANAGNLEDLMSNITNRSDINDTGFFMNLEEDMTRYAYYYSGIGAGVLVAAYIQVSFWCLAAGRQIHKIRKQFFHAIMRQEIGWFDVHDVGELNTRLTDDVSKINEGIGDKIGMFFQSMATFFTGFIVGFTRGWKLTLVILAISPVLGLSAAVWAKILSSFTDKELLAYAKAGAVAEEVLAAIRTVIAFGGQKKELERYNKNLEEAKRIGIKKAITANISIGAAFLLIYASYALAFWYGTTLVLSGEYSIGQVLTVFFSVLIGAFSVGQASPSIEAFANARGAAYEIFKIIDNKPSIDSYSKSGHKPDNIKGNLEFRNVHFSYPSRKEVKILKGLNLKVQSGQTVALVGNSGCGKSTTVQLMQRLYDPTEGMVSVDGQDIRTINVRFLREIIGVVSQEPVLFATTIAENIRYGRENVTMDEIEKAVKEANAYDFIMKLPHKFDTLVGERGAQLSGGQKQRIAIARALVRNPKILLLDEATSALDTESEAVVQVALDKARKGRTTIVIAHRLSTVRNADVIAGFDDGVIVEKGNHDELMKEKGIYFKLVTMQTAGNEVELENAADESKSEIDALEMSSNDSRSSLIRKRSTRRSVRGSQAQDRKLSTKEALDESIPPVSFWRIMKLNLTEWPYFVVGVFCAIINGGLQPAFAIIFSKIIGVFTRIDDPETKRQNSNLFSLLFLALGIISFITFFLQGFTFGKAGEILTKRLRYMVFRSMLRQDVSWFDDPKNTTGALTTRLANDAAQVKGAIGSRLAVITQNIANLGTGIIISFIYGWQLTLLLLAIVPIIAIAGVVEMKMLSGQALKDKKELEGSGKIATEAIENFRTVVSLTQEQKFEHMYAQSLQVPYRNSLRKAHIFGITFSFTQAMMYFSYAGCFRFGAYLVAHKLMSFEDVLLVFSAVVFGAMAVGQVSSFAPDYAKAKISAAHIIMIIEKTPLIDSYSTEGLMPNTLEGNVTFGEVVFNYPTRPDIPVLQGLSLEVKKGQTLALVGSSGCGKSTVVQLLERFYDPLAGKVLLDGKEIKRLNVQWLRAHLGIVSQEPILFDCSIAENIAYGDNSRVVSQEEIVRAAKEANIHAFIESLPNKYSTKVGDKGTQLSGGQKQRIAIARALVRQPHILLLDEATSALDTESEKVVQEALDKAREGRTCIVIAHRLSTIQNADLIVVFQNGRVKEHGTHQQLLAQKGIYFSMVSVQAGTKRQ

| SMILES | pKb [3] | Selectivity ratio [4] | Selectivity ratio [5] | logD at 18 h [8] | further results |
| --- | --- | --- | --- | --- | --- |
| CN1Cc2cc(Cl)ccc2-n2c(nnc2[C@H]2CC[C@H](Nc3ccccn3)CC2)C1 |  |  |  |  | efflux ratio at 3.5 h, 1 µM [1]: 14 |
| CN(C)CCn1cc(C(=O)N2CCC3(CC2)OCc2ccccc23)c2ccc(Cl)cc21 [RO-5028442] |  |  |  |  | half-life [2]: 8 h |
| CN1Cc2cc(Cl)ccc2-n2c(nnc2C2CCN(c3ccccn3)CC2)C1 | 8.9 | 2478 | 2415 |  | microsomal CLint [6]: < 10 µL/min/mg; microsomal CLint [7]: 72 µL/min/mg |
| Cc1nnc(-c2ccc(-c3ccccc3)cc2)n1-c1ccccc1OCCCCCCN1CCN(C)CC1 | 8.7 | 67 | 34 |  |  |
| CN(C)CC(=O)N1Cc2cc(Cl)ccc2-n2c(nnc2[C@H]2CC[C@H](Oc3ccccc3)CC2)C1 | 9.2 | 963 | 1025 | 2.5 |  |
| CN1Cc2cc(Cl)ccc2-n2c(nnc2-c2ccc(-c3ccccc3)cc2)C1 | 8.6 | 30 | 13 |  | Kb [3]: 12 nM; clearance [9]: 50 to 60%; Vd [10]: 4 to 6 L/kg; half-life [11]: 1.5 h; Occ (Rattus norvegicus [12]): >90%; Activity (Rattus norvegicus [13]): Active; Activity (Rattus norvegicus [14]): Active; Activity (Rattus norvegicus [15]): Active; Activity (Rattus norvegicus [16]): Active; Activity (Rattus norvegicus [17]): Dose-dependent effect |
| Cc1onc([C@H]2CC[C@H](c3nnc4n3-c3ccc(Cl)cc3CN(C)C4)CC2)c1C |  |  |  |  | efflux ratio at 3.5 h, 1 µM [1]: 3.8 |
| CN1Cc2cc(Cl)ccc2-n2c(nnc2N2CCC3(CC2)OCCc2ccccc23)C1 | 8.8 | 44 | 10 |  | microsomal CLint [6]: < 10 µL/min/mg; microsomal CLint [7]: 550 µL/min/mg |
| CN1Cc2cc(Cl)ccc2-n2c(nnc2[C@H]2CC[C@H](c3ncccc3F)CC2)C1 |  |  |  | 2.5 to 3.2 |  |
| CN(C)S(=O)(=O)N1Cc2cc(Cl)ccc2-n2c(nnc2[C@H]2CC[C@H](Oc3ccccc3)CC2)C1 | 9.5 | 445 | 190 | 4.1 |  |
| OCCN1Cc2cc(Cl)ccc2-n2c(nnc2[C@H]2CC[C@H](Oc3ccccc3)CC2)C1 | 9.6 | 1091 | 677 | 2.7 |  |
| CN1Cc2cc(Cl)ccc2-n2c(nnc2N2CCC3(CC2)OCc2ccccc23)C1 | 9.6 | 218 | 127 |  | microsomal CLint [6]: < 10 µL/min/mg; microsomal CLint [7]: 718 µL/min/mg |
| Clc1ccc2c(c1)CN(C1CCC1)Cc1nnc([C@H]3CC[C@H](Oc4ccccc4)CC3)n1-2 | 9.3 | 179 | 113 | > 3 |  |
| CN1Cc2cc(Cl)ccc2-n2c(nnc2[C@H]2CC[C@H](C3=NOCC3)CC2)C1 |  |  |  | 1 | efflux ratio at 3.5 h, 1 µM [1]: 6.1 |
| CS(=O)(=O)N1Cc2cc(Cl)ccc2-n2c(nnc2[C@H]2CC[C@H](Oc3ccccc3)CC2)C1 | 9.5 | 573 | 191 | 3.1 |  |
| CN1Cc2cc(Cl)ccc2-n2c(nnc2N2CCC(O)(c3ccccc3)CC2)C1 | 8.6 | 38 | 35 |  | microsomal CLint [6]: < 10 µL/min/mg; microsomal CLint [7]: 435 µL/min/mg |
| CN1Cc2cc(Cl)ccc2-n2c(nnc2[C@H]2CC[C@H](c3ccc(F)cn3)CC2)C1 |  |  |  | 2.5 to 3.2 |  |
| CN1Cc2cc(Cl)ccc2-n2c(nnc2[C@H]2CC[C@H](n3nnc4ccccc43)CC2)C1 |  |  |  | 2.4 | efflux ratio at 3.5 h, 1 µM [1]: 10.9 |

| SMILES | pKb [3] | Selectivity ratio [4] | Selectivity ratio [5] | logD at 18 h [8] | further results |
| --- | --- | --- | --- | --- | --- |
| CN1Cc2cc(Cl)ccc2-n2c(nnc2[C@H]2CC[C@]3(CC2)OCc2ccccc23)C1 | 9.1 | 19 | 5 |  | microsomal CLint [6]: 10 µL/min/mg; microsomal CLint [7]: 206 µL/min/mg |
| CN1Cc2cc(Cl)ccc2-n2c(nnc2[C@H]2CC[C@H](Oc3ccccc3)CC2)C1 | 9.5 | 629 | 289 | 3.2 |  |
| CC(=O)N1Cc2cc(Cl)ccc2-n2c(nnc2[C@H]2CC[C@H](Oc3ccccc3)CC2)C1 | 9.5 | 1055 | 538 | 2.9 |  |
| CN1Cc2cc(Cl)ccc2-n2c(nnc2[C@H]2CC[C@H](c3noc4ccccc43)CC2)C1 |  |  |  | > 3 | efflux ratio at 3.5 h, 1 µM [1]: 1.4 |
| Cc1cc(C)nc([C@H]2CC[C@H](c3nnc4n3-c3ccc(Cl)cc3CN(C)C4)CC2)n1 |  |  |  | 2 |  |
| CN1Cc2cc(Cl)ccc2-n2c(nnc2[C@H]2CC[C@H](c3ccccc3)CC2)C1 | 9.5 | 17 | 4 |  |  |
| Cc1cccc([C@H]2CC[C@H](c3nnc4n3-c3ccc(Cl)cc3CN(C)C4)CC2)n1 |  |  |  | 2.5 to 3.2 |  |
| CN1Cc2cc(Cl)ccc2-n2c(nnc2C2CC=C(c3ccccc3)CC2)C1 (racemic) | 9.3 | 90 | 22 |  |  |
| CN1Cc2cc(Cl)ccc2-n2c(nnc2N2CCC3(CC2)SCc2ccccc23)C1 | 9 | 65 | 9 |  | microsomal CLint [6]: 24 µL/min/mg; microsomal CLint [7]: 493 µL/min/mg |
| CN1Cc2cc(Cl)ccc2-n2c(nnc2[C@H]2CC[C@H](c3ccccn3)CC2)C1 | 9.6 | 1081 | 863 |  | efflux ratio at 3.5 h, 1 µM [1]: 4.4 |
| CN1Cc2cc(Cl)ccc2-n2c(nnc2[C@H]2CC[C@@]3(CC2)OCc2ccccc23)C1 | 9.2 | 669 | 236 |  | microsomal CLint [6]: 72 µL/min/mg; microsomal CLint [7]: 1000 µL/min/mg |
| CC(C)(C)OC(=O)N1Cc2cc(Cl)ccc2-n2c(nnc2[C@H]2CC[C@H](Oc3ccccc3)CC2)C1 | 8.5 | 19 | 17 |  |  |
| Clc1ccc2c(c1)CNCc1nnc([C@H]3CC[C@H](Oc4ccccc4)CC3)n1-2 | 8.7 | 523 | 430 | 2.7 | efflux ratio at 3.5 h, 1 µM [1]: 4.3 |
| CN1Cc2cc(Cl)ccc2-n2c(nnc2[C@H]2CC[C@H](c3ncccc3Cl)CC2)C1 |  |  |  | 2.5 to 3.2 |  |
| CN1Cc2cc(Cl)ccc2-n2c(nnc2[C@H]2CC[C@H](c3cccc(Cl)n3)CC2)C1 |  |  |  | 2.5 to 3.2 |  |
| CN1Cc2cc(Cl)ccc2-n2c(nnc2N2CCC3(CC2)COCc2ccccc23)C1 | 9.3 | 167 | 14 |  | microsomal CLint [6]: 22 µL/min/mg; microsomal CLint [7]: 949 µL/min/mg |
| CN1Cc2cc(Cl)ccc2-n2c(nnc2[C@H]2CC[C@H](c3ncc(F)cc3F)CC2)C1 |  |  |  | 2.5 to 3.2 |  |
| CC(C)N1Cc2cc(Cl)ccc2-n2c(nnc2[C@H]2CC[C@H](Oc3ccccc3)CC2)C1 | 9.4 | 535 | 224 |  |  |
